Results published in patent US8853238B2, “Fused heterocyclic compound and use thereof for pest control” (Sumitomo Chemical Company, Limited, priority 2010, dated 2014).

Columns and labels:
Type in all cases: in vivo
[1] = tested on: Aphis gossypii; test: Test Example 1: spray on cucumber seedling inoculated with Aphis gossypii; settings: topical, 144 h; 500 ppm active ingredient (Formulation Example 5 diluted with water); 20 ml sprayed on cucumber seedling with about 30 Aphis gossypii; six days after spraying
Description: On the other hand, on a cucumber seedling (the first true leaf stage) planted in a plastic cup was inoculated with about 30 Aphis gossypii, and leaving it for a day. Twenty ml of each of the above test spray solutions was sprayed on this seedling. Six days after spraying, the number of the surviving Aphis gossypii parasitized on the leaves of the cucumber was examined, and a control value was calculated according to the following equation: Control value (%)={1−(Cb×Tai)/(Cai×Tb))×100 wherein symbols represent as follows: Cb: the number of insects in a non-treated section before treatment, Cai: the number of insects in a non-treated section in observation, Tb: the number of insects in a treated-section before treatment, Tai: the number of insects in a treated-section in observation; wherein the non-treated section represents a section where the test spray solution prepared by diluting the formulation without the present compound in Formulation Example 5 with the same amount of water as in the treated-section was sprayed.

[2] = tested on: Aphis gossypii; test: Test Example 2: root immersion of cucumber seedling, then inoculation with Aphis gossypii; settings: 168 h; 500 ppm active ingredient; cucumber root part immersed in 5 ml; 30 Aphis gossypii inoculated one day after treatment; examined after further seven days
Description: A root part of a cucumber seedling (the first true leaf stage) from which soil had been washed off was immersed in 5 ml of each of the diluted solutions, and one day after treatment, on the cucumber leaf surface was inoculated with 30 Aphis gossypii (whole stage). After further seven days, the number of insect of living Aphis gossypii parasitized on the leaves of the cucumber was examined, and a control value was calculated according to the following equation: Control value (%)={1−(Cb×Tai)/(Cai×Tb))×100 wherein symbols represent as follows: Cb: the number of insects in a non-treated section before treatment, Cai: the number of insects in a non-treated section in observation, Tb: the number of insects in a treated-section before treatment, Tai: the number of insects in a treated-section in observation; wherein the non-treated section represents a section where the test diluted solution prepared by diluting the formulation without the present compound in Formulation Example 5 with the same amount of water as in the treated-section was used.

[3] = tested on: Aphis gossypii; test: Test Example 3: drench at foot of cucumber seedling, then inoculation with Aphis gossypii; settings: soil, 144 h, read-out: Control value
[4] = tested on: Nilaparvata lugens; test: Test Example 4: spray on rice seedling, release of Nilaparvata lugens larvae; settings: 144 h; 500 ppm active ingredient; rice seedling sprayed with 10 ml; third-fourth instar larvae of Nilaparvata lugens; after 6 days at 25° C.; read-out: Control value
[5] = tested on: Nilaparvata lugens; test: Test Example 5: drench at foot of rice seedling, release of Nilaparvata lugens larvae; settings: soil, 144 h; 500 ppm active ingredient; rice seedling drenched at its foot with 5 ml, kept 7 days; twenty third-fourth instar larvae of Nilaparvata lugens; examined after 6 days
Description: On the other hand, a rice seedling (2 weeks after sowing, the second leaf stage) planted in a plastic cup was drenched at its foot with 5 ml of each of the diluted solutions, and kept in a greenhouse of 25° C. for 7 days. Twenty third-fourth instar larvae of Nilaparvata lugens were released, and further kept in the greenhouse for 6 days, then the number of insect of living Nilaparvata lugens parasitized on the rice was examined, and a control value was calculated according to the following equation: Control value (%)={1−(Cb×Tai)/(Cai×Tb))×100 wherein symbols represent as follows: Cb: the number of insects in a non-treated section before treatment, Cai: the number of insects in a non-treated section in observation, Tb: the number of insects in a treated-section before treatment, Tai: the number of insects in a treated-section in observation; wherein the non-treated section represents a section where the test diluted solution prepared by diluting the formulation without the present compound in Formulation Example 5 with the same amount of water as in the treated-section was used.

[6] = tested on: Bemisia tabaci; test: Test Example 6: spray on tomato seedling with Bemisia tabaci instar larvae; settings: 168 h; 500 ppm active ingredient; 20 ml/cup sprayed on tomato seedling with hatched Bemisia tabaci instar larvae; after 7 days at 25° C.
Description: On the other hand, Bemisia tabaci adult was released on a tomato seedling (the third true leaf stage) planted in a polyethylene cup, and made to lay eggs for about 72 hours. The tomato seedling was kept in a greenhouse for 8 days. When instar larvae hatched from the eggs, the above test spray solution was sprayed in the amount of 20 ml/cup. The cup was kept in a greenhouse at 25° C. After the keeping for 7 days, the number of surviving instar larvae on the tomato leaves was examined, and a control value was calculated according to the following equation: Control value (%)={1−(Cb×Tai)/(Cai×Tb))×100 wherein symbols represent as follows: Cb: the number of insects in a non-treated section before treatment, Cai: the number of insects in a non-treated section in observation, Tb: the number of insects in a treated-section before treatment, Tai: the number of insects in a treated-section in observation; wherein the non-treated section represents a section where the test spray solution prepared by diluting the formulation without the present compound in Formulation Example 5 with the same amount of water as in the treated-section was sprayed.

[7] = tested on: Adoxophyes orana fasciata; test: Test Example 8: spray on apple tree, release of Adoxophyes orana fasciata; settings: in Malus domestica, 168 h; 500 ppm active ingredient; apple tree sprayed with 20 mL/cup; 60 first-instar Adoxophyes orana fasciata; after 7 days; read-out: Death rate
Description: On the other hand, an apple tree was planted in a plastic cup, and grown until the seventh-eighth leaf was spread. The apple tree was sprayed with 20 mL/cup of each of the test spray solution. After the test solution was dried, 60 first-instar Adoxophyes orana fasciata were released, and the cup was covered with a plastic cup upside-down which the bottom was cut off and a filter paper was put thereon. After 7 days, the number of living insects was counted, and a death rate was calculated according to the following equation: Death rate (%)=(Number of dead insects/Number of tested insects)×100

[8] = 500 ppm active ingredient, cucumber seedling drenched at its foot with 5 ml, kept 7 days at 25° C., 30 Aphis gossypii inoculated, examined after 6 days

Measured: pest or weed control at 500 ppm

CCSc1ccccc1-c1nc2cc(C(F)(F)C(F)(F)F)cnc2n1C [Present Compound 55, 2-(2-ethylsulfanylphenyl)-3-methyl-6-pentafluoroethyl-3H-imidazo[4,5-b]pyridine]
≥ 90%: [1] | [2] | [3]; [8] | [4] | [5] | [6]

CC[S+]([O-])c1c(Cl)cccc1-c1nc2cc(C(F)(F)F)cnc2n1C (stereo not drawn) [Present Compound 89, 2-(3-chloro-2-ethylsulfinylphenyl)-3-methyl-6-trifluoromethyl-3H-imidazo[4,5-b]pyridine]
≥ 90%: [2] | [3]; [8] | [5]

CCS(=O)(=O)c1ccccc1-c1nc2cc(C(F)(F)C(F)(F)C(F)(F)F)cnc2n1C [Present Compound 130, 2-(2-ethylsulfonylphenyl)-6-heptafluoropropyl-3-methyl-3H-imidazo[4,5-b]pyridine]
≥ 90%: [3]; Aphis gossypii | [5]

CCS(=O)(=O)c1cc(C(F)(F)F)ccc1-c1nc2cc(SC(F)(F)F)cnc2n1C [compound 306, 2-(2-ethylsulfonyl-4-trifluoromethylphenyl)-3-methyl-6-trifluoromethylsulfanyl-3H-imidazo[4,5-b]pyridine]
≥ 90%: [2] | [3]; [8] | [4] | [5]

CCS(=O)(=O)c1cc(-c2ncccn2)ccc1-c1nc2cc(C(F)(F)F)cnc2n1C [compound 333, 2-[2-ethylsulfonyl-4-(pyrimidine-2-yl)-phenyl)-3-methyl-6-trifluoromethyl-3H-imidazo[4,5-b]pyridine]
≥ 90%: [1] | [2] | [3]; [8] | [6]

CCS(=O)(=O)c1cc(C(F)(F)F)ccc1-c1nc2cc(C(F)(F)F)cnc2[nH]1 [compound 345, 2-(2-ethylsulfonyl-4-trifluoromethyl-phenyl)-6-trifluoromethyl-3H-imidazo[4,5-b]pyridine]
≥ 90%: [1] | [3]; [8] | [5] | [6] | [7]
